Source: the supplement of paper PMC11061612

How the values were obtained:
Assay in all cases: combination Emax (second highest fraction inhibited in the dose matrix, 72 h); higher = more inhibition; extreme values may be limits of the assay
[1] = test system: HOP-62 (Lung Adenocarcinoma)
Summary of the method: (§1)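 After 24 hours at 37°C and 5% CO2 in 1536-well plates, cells in DMEM/F12 or RPMI plus 10% FBS received two-drug dose matrices for 72 hours. Viability came from CellTiter-Glo 2.0 luminescence and was scaled as inhibition, anchored at 0 by vehicle wells and at 1 by blank wells. Combination Emax is taken as the second-highest inhibition in the matrix, and Bliss excess as the observed combination effect less EA + EB − EA·EB, with EA and EB the single-agent effects.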

[2] = test system: SU8686 (Pancreatic Carcinoma)
Summary of the method: as §1

[3] = test system: PANC-04-03 (Pancreatic Carcinoma)
Summary of the method: as §1

[4] = test system: UACC-62 (Melanoma)
Summary of the method: as §1

[5] = test system: EFM-19 (Breast Carcinoma)
Summary of the method: as §1

[6] = test system: MIA-PaCa-2 (Pancreatic Carcinoma)
Summary of the method: as §1

[7] = test system: NB69 (Neuroblastoma)
Summary of the method: as §1

[8] = test system: KYSE-450 (Esophageal Squamous Cell Carcinoma)
Summary of the method: as §1

[9] = test system: C-4-I (Cervical Carcinoma)
Summary of the method: as §1

[10] = test system: Hs-766T (Pancreatic Carcinoma)
Summary of the method: as §1

[11] = test system: NEC8 (Other Solid Carcinomas)
Summary of the method: as §1

[12] = test system: D-263MG (Glioblastoma)
Summary of the method: as §1

[13] = test system: NCI-H727 (Other Solid Carcinomas)
Summary of the method: as §1

[14] = test system: BT-549 (Breast Carcinoma)
Summary of the method: as §1

[15] = test system: RF-48 (B-Cell Non-Hodgkin's Lymphoma)
Summary of the method: as §1

[16] = test system: OSC-20 (Oral Cavity Carcinoma)
Summary of the method: as §1

[17] = test system: VA-ES-BJ (Other Solid Carcinomas)
Summary of the method: as §1

[18] = test system: ACHN (Kidney Carcinoma)
Summary of the method: as §1

[19] = test system: TGW (Neuroblastoma)
Summary of the method: as §1

[20] = test system: Ca9-22 (Head and Neck Carcinoma)
Summary of the method: as §1

Compound | combination Emax [1] | combination Emax [2] | combination Emax [3] | combination Emax [4] | combination Emax [5] | combination Emax [6] | combination Emax [7] | combination Emax [8] | combination Emax [9] | combination Emax [10] | combination Emax [11] | combination Emax [12] | combination Emax [13] | combination Emax [14] | combination Emax [15] | combination Emax [16] | combination Emax [17] | combination Emax [18] | combination Emax [19] | combination Emax [20]
COc1nnc2ccc(N3CCC(c4ccc(OCCN5CCN(C)C(=O)[C@H]5C)cc4)CC3)nn12 [AZD5153] + CCN(CCO)CCCOc1ccc2c(Nc3cc(CC(=O)Nc4cccc(F)c4)[nH]n3)ncnc2c1 [AZD2811] (first compound max 1 µM, 7x7, partner max 1 µM) | 0.631 | 0.0898 | 0.487 | 0.478 | 0.366 | 0.88 | 0.952 | 0.358 | 0.565 | 0.416 | 0.826 | 0.445 | 0.404 | 0.593 | 0.418 | 0.261 | 0.579 | 0.562 | 0.501 | 0.592
COc1nnc2ccc(N3CCC(c4ccc(OCCN5CCN(C)C(=O)[C@H]5C)cc4)CC3)nn12 [AZD5153] + C[C@@H]1COCCN1C2=NC(=NC(=C2)C3(CC3)[S@](=N)(=O)C)C4=C5C=CNC5=NC=C4 [AZD6738] (first compound max 1 µM, 7x7, partner max 10 µM) | 0.664 | 0.1 | 0.545 | 0.664 | 0.549 | 0.919 | 0.991 | 0.481 | 0.876 | 0.543 | 0.954 | 0.465 | 0.59 | 0.637 | 0.629 | 0.309 | 0.799 | 0.928 | 0.728 | 0.878
COc1nnc2ccc(N3CCC(c4ccc(OCCN5CCN(C)C(=O)[C@H]5C)cc4)CC3)nn12 [AZD5153] + Cc1c2c(nn1C)CSCc1cc(n(C)n1)CSc1cc(c3ccccc3c1)OCCCc1c(C(=O)O)n(C)c3c-2c(Cl)ccc13 [AZD5991] (first compound max 1 µM, 7x7, partner max 1 µM) | 0.602 | 0.134 | 0.442 | 0.969 | 0.773 | 0.993 | 0.998 | 0.494 | 0.933 | 0.459 | 1 | 0.98 | 0.388 | 0.814 | 0.473 | 0.199 | 0.566 | 0.537 | 0.808 | 0.815
COc1nnc2ccc(N3CCC(c4ccc(OCCN5CCN(C)C(=O)[C@H]5C)cc4)CC3)nn12 [AZD5153] + Cn1cnc2c(F)c(Nc3ccc(Br)cc3Cl)c(C(=O)NOCCO)cc21 [Selumetinib] (first compound max 1 µM, 7x7, partner max 10 µM) | 0.668 | 0.241 | 0.548 | 0.947 | 0.28 | 0.859 | 1 | 0.429 | 0.883 | 0.589 | 0.929 | 0.441 | 0.678 | 0.518 | 0.362 | 0.23 | 0.481 | 0.634 | 0.602 | 0.699
Cc1c2c(nn1C)CSCc1cc(n(C)n1)CSc1cc(c3ccccc3c1)OCCCc1c(C(=O)O)n(C)c3c-2c(Cl)ccc13 [AZD5991] + C=CCn1c(=O)c2cnc(Nc3ccc(N4CCN(C)CC4)cc3)nc2n1-c1cccc(C(C)(C)O)n1 [AZD1775] (first compound max 1 µM, partner max 1 µM) | 0.705 | 0.33 | 0.512 | 0.901 | 0.778 | 0.711 | 0.944 | 0.763 | 1 | 0.496 | 0.851 | 0.758 | 0.358 | 0.811 | 0.605 | 0.346 | 0.6 | 0.938 | 0.806 | 0.879
Cc1c2c(nn1C)CSCc1cc(n(C)n1)CSc1cc(c3ccccc3c1)OCCCc1c(C(=O)O)n(C)c3c-2c(Cl)ccc13 [AZD5991] + CC1(C)CCC(CN2CCN(c3ccc(C(=O)NS(=O)(=O)c4ccc(NCC5CCOCC5)c([N+](=O)[O-])c4)c(Oc4cnc5[nH]ccc5c4)c3)CC2)=C(c2ccc(Cl)cc2)C1 [Venetoclax] (first compound max 1 µM, 7x7, partner max 1 µM) | 0.0765 | 0.0608 | 0.175 | 0.962 | 0.624 | 0.451 | 0.877 | 0.189 | 0.976 | 0.184 | 0.793 | 0.863 | 0.258 | 0.45 | 0.497 | 0.145 | 0.145 | 0.192 | 0.857 | 0.725
Cc1c2c(nn1C)CSCc1cc(n(C)n1)CSc1cc(c3ccccc3c1)OCCCc1c(C(=O)O)n(C)c3c-2c(Cl)ccc13 [AZD5991] + CCN(CCO)CCCOc1ccc2c(Nc3cc(CC(=O)Nc4cccc(F)c4)[nH]n3)ncnc2c1 [AZD2811] (first compound max 1 µM, 7x7, partner max 1 µM) | 0.446 | 0.172 | 0.237 | 0.887 | 0.783 | 0.66 | 0.878 | 0.54 | 1 | 0.346 | 0.33 | 0.994 | 0.286 | 0.575 | 0.262 | 0.438 | 0.395 | 0.27 | 0.402 | 0.465
Cc1c2c(nn1C)CSCc1cc(n(C)n1)CSc1cc(c3ccccc3c1)OCCCc1c(C(=O)O)n(C)c3c-2c(Cl)ccc13 [AZD5991] + C[C@@H]1COCCN1C2=NC(=NC(=C2)C3(CC3)[S@](=N)(=O)C)C4=C5C=CNC5=NC=C4 [AZD6738] (first compound max 1 µM, 7x7, partner max 10 µM) | 0.784 | 0.353 | 0.479 | 0.939 | 0.465 | 0.706 | 0.967 | 0.55 | 1 | 0.574 | 0.978 | 0.935 | 0.412 | 0.659 | 0.545 | 0.406 | 0.686 | 0.948 | 0.714 | 0.93
Cc1c2c(nn1C)CSCc1cc(n(C)n1)CSc1cc(c3ccccc3c1)OCCCc1c(C(=O)O)n(C)c3c-2c(Cl)ccc13 [AZD5991] + C[C@@H](Nc1cc(F)cc(F)c1)c1cc(C(=O)N(C)C)cc2c(=O)cc(N3CCOCC3)oc12 [AZD8186] (first compound max 1 µM, 7x7, partner max 3 µM) | 0.281 | 0.378 | 0.266 | 0.934 | 0.586 | 0.336 | 0.894 | 0.234 | 0.985 | 0.45 | 0.369 | 0.975 | 0.274 | 0.476 | 0.365 | 0.237 | 0.322 | 0.342 | 0.347 | 0.521
Cc1c2c(nn1C)CSCc1cc(n(C)n1)CSc1cc(c3ccccc3c1)OCCCc1c(C(=O)O)n(C)c3c-2c(Cl)ccc13 [AZD5991] + Cc1cc2ncnn2cc1Nc1ncc2c(n1)n(C1CCOCC1)c(=O)n2C [AZD7648] (first compound max 1 µM, 7x7, partner max 10 µM) | 0.281 | 0.127 | 0.342 | 0.859 | 0.629 | 0.354 | 0.779 | 0.268 | 1 | 0.398 | 0.339 | 0.75 | 0.277 | 0.329 | 0.262 | 0.257 | 0.221 | 0.246 | 0.339 | 0.214
Cc1c2c(nn1C)CSCc1cc(n(C)n1)CSc1cc(c3ccccc3c1)OCCCc1c(C(=O)O)n(C)c3c-2c(Cl)ccc13 [AZD5991] + Cn1cnc2c(F)c(Nc3ccc(Br)cc3Cl)c(C(=O)NOCCO)cc21 [Selumetinib] (first compound max 1 µM, 7x7, partner max 3 µM) | 0.426 | 0.334 | 0.432 | 0.998 | 0.282 | 0.623 | 0.982 | 0.331 | 1 | 0.595 | 0.383 | 0.634 | 0.65 | 0.258 | 0.21 | 0.276 | 0.184 | 0.4 | 0.381 | 0.581
C[C@@H]1COCCN1c1cc(C2([S@](C)(=N)=O)CC2)nc(-c2ccnc3[nH]ccc23)n1 [AZD6738] + O=C(c1cc(Cc2n[nH]c(=O)c3ccccc23)ccc1F)N1CCN(C(=O)C2CC2)CC1 [Olaparib] (first compound max 10 µM, 7x7, partner max 10 µM) | 0.498 | 0.288 | 0.515 | 0.509 | 0.439 | 0.708 | 0.94 | 0.608 | 0.875 | 0.554 | 0.764 | 0.981 | 0.384 | 0.446 | 0.56 | 0.387 | 0.64 | 0.988 | 0.731 | 0.88
NC1(C(=O)N[C@@H](CCO)c2ccc(Cl)cc2)CCN(c2ncnc3[nH]ccc23)CC1 [Capivasertib] + CC(=O)c1c(C)c2cnc(Nc3ccc(N4CCNCC4)cn3)nc2n(C2CCCC2)c1=O [Palbociclib] (first compound max 10 µM, 7x7, partner max 10 µM) | 0.572 | 0.07 | 0.261 | 0.492 | 0.481 | 0.451 | 0.726 | 0.351 | 0.519 | 0.36 | 0.187 | 0.448 | 0.507 | 0.391 | 0.42 | 0.279 | 0.458 | 0.658 | 0.378 | 0.442
